System: MV-4-11 cells
Experiment: Gene expression microarray analysis (Affymetrix PrimeView) and GSEA
Assay type: cell-based, human
Parameters: RFU PODN (11730768_x_at) / Fold change /veh PODN (11730768_x_at) / RFU LINC00158 (11744669_a_at) / Fold change /veh LINC00158 (11744669_a_at) / RFU DUSP10 (11751237_a_at) / Fold change /veh DUSP10 (11751237_a_at) / RFU ID3 (11757404_x_at) / Fold change /veh ID3 (11757404_x_at) / RFU PLEKHG5 (11737974_s_at) / Fold change /veh PLEKHG5 (11737974_s_at) / RFU LRRC4B (11730491_at) / Fold change /veh LRRC4B (11730491_at) / RFU GIMAP4 (11747438_a_at) / Fold change /veh GIMAP4 (11747438_a_at) / RFU KRT8 (11758183_x_at) / Fold change /veh KRT8 (11758183_x_at) / RFU CNN1 (11734310_a_at) / Fold change /veh CNN1 (11734310_a_at) / RFU VPS37D (11726825_at) / Fold change /veh VPS37D (11726825_at) / RFU C10orf10 (11716522_x_at) / Fold change /veh C10orf10 (11716522_x_at) / RFU KIR2DL2 /// KIR2DL4 /// KIR2DL5A /// KIR2DL5B /// KIR2DS1 /// KIR2DS2 /// KIR2DS3 /// KIR2DS4 /// KIR3DL3 /// KIR3DL3 /// KIR3DS1 (11738374_at) / Fold change /veh KIR2DL2 /// KIR2DL4 /// KIR2DL5A /// KIR2DL5B /// KIR2DS1 /// KIR2DS2 /// KIR2DS3 /// KIR2DS4 /// KIR3DL3 /// KIR3DL3 /// KIR3DS1 (11738374_at) / RFU C1QL1 (11718748_at) / Fold change /veh C1QL1 (11718748_at) / RFU TMPRSS4 (11747572_a_at) / Fold change /veh TMPRSS4 (11747572_a_at) / RFU HAMP (11756126_x_at) / Fold change /veh HAMP (11756126_x_at) / RFU RNFT2 (11725882_a_at) / Fold change /veh RNFT2 (11725882_a_at) / RFU NR4A2 (11747474_a_at) / Fold change /veh NR4A2 (11747474_a_at) / RFU ABCC12 (11746883_a_at) / Fold change /veh ABCC12 (11746883_a_at) / RFU TMEM136 (11760407_x_at) / Fold change /veh TMEM136 (11760407_x_at) / RFU CLDN22 /// WWC2 (11732394_at) / Fold change /veh CLDN22 /// WWC2 (11732394_at) / RFU HLA-DPB1 (11760878_x_at) / Fold change /veh HLA-DPB1 (11760878_x_at) / RFU SPINT1 (11716480_a_at) / Fold change /veh SPINT1 (11716480_a_at) / RFU GAP43 (11754022_s_at) / Fold change /veh GAP43 (11754022_s_at) / RFU A4GNT (11735810_at) / Fold change /veh A4GNT (11735810_at) / RFU PRB3 (11715151_x_at) / Fold change /veh PRB3 (11715151_x_at) / RFU TUBB4B (11761932_at) / Fold change /veh TUBB4B (11761932_at) / RFU CAPN14 (11732068_a_at) / Fold change /veh CAPN14 (11732068_a_at) / RFU TMCC2 (11721928_a_at) / Fold change /veh TMCC2 (11721928_a_at) / RFU IRGQ (11745062_a_at) / Fold change /veh IRGQ (11745062_a_at) / RFU FAM174B (11720279_a_at) / Fold change /veh FAM174B (11720279_a_at) / RFU TMPRSS4 (11748680_a_at) / Fold change /veh TMPRSS4 (11748680_a_at) / RFU FAM212B (11763350_a_at) / Fold change /veh FAM212B (11763350_a_at) / RFU PLEKHG5 (11743358_a_at) / Fold change /veh PLEKHG5 (11743358_a_at) / RFU ZSCAN30 (11745921_a_at) / Fold change /veh ZSCAN30 (11745921_a_at) / RFU CMKLR1 (11741424_a_at) / Fold change /veh CMKLR1 (11741424_a_at) / RFU LOC101060620 /// MAPK8IP1 (11723275_at) / Fold change /veh LOC101060620 /// MAPK8IP1 (11723275_at) / RFU SPTSSB (11747773_x_at) / Fold change /veh SPTSSB (11747773_x_at) / RFU PRSS12 (11739890_at) / Fold change /veh PRSS12 (11739890_at) / RFU BIN1 (11741810_x_at) / Fold change /veh BIN1 (11741810_x_at) / RFU WNT11 (11732464_a_at) / Fold change /veh WNT11 (11732464_a_at) / RFU C10orf10 (11716521_a_at) / Fold change /veh C10orf10 (11716521_a_at) / RFU C5orf56 (11738089_at) / Fold change /veh C5orf56 (11738089_at) / RFU CYB561 (11721691_x_at) / Fold change /veh CYB561 (11721691_x_at) / RFU ANKRD19P (11752326_a_at) / Fold change /veh ANKRD19P (11752326_a_at) / RFU OR2T12 /// OR2T33 /// OR2T8 (11738714_s_at) / Fold change /veh OR2T12 /// OR2T33 /// OR2T8 (11738714_s_at) / RFU VCAN (11748164_a_at) / Fold change /veh VCAN (11748164_a_at) / RFU JSRP1 (11732532_at) / Fold change /veh JSRP1 (11732532_at) / RFU KRTAP10-11 (11738290_x_at) / Fold change /veh KRTAP10-11 (11738290_x_at) / RFU MYO3A (11730013_a_at) / Fold change /veh MYO3A (11730013_a_at) / RFU EBF3 (11725865_a_at) / Fold change /veh EBF3 (11725865_a_at) / RFU CAMK2N1 (11719241_x_at) / Fold change /veh CAMK2N1 (11719241_x_at) / RFU C5orf56 (11738088_a_at) / Fold change /veh C5orf56 (11738088_a_at) / RFU OLFML3 (11715873_a_at) / Fold change /veh OLFML3 (11715873_a_at) / RFU LOC100653217 /// NTM (11731650_a_at) / Fold change /veh LOC100653217 /// NTM (11731650_a_at) / RFU MAPK11 (11762145_a_at) / Fold change /veh MAPK11 (11762145_a_at) / RFU FIZ1 (11724087_x_at) / Fold change /veh FIZ1 (11724087_x_at) / RFU OASL (11726364_x_at) / Fold change /veh OASL (11726364_x_at) / RFU SOX15 (11748057_x_at) / Fold change /veh SOX15 (11748057_x_at) / RFU CD79A (11719716_a_at) / Fold change /veh CD79A (11719716_a_at) / RFU HIST1H1D (11736915_at) / Fold change /veh HIST1H1D (11736915_at) / RFU CASKIN2 (11723855_a_at) / Fold change /veh CASKIN2 (11723855_a_at) / RFU LOC730098 (11760151_x_at) / Fold change /veh LOC730098 (11760151_x_at) / RFU OR4N2 (11742367_at) / Fold change /veh OR4N2 (11742367_at) / RFU PRRT2 (11749266_a_at) / Fold change /veh PRRT2 (11749266_a_at) / RFU SNX32 (11753110_a_at) / Fold change /veh SNX32 (11753110_a_at) / RFU CDHR5 (11726645_a_at) / Fold change /veh CDHR5 (11726645_a_at) / RFU RCAN1 (11760418_a_at) / Fold change /veh RCAN1 (11760418_a_at) / RFU FAM167A (11723789_a_at) / Fold change /veh FAM167A (11723789_a_at) / RFU FAM26E (11764081_at) / Fold change /veh FAM26E (11764081_at) / RFU ISYNA1 (11749810_s_at) / Fold change /veh ISYNA1 (11749810_s_at) / RFU ACY1 (11761880_at) / Fold change /veh ACY1 (11761880_at) / RFU 11764098_at / Fold change /veh 11764098_at / RFU SAMD14 (11745864_x_at) / Fold change /veh SAMD14 (11745864_x_at) / RFU NPB (11741838_a_at) / Fold change /veh NPB (11741838_a_at) / RFU TMPRSS6 (11731388_a_at) / Fold change /veh TMPRSS6 (11731388_a_at) / RFU KRTAP10-2 (11738614_at) / Fold change /veh KRTAP10-2 (11738614_at) / RFU ARHGAP8 /// PRR5-ARHGAP8 (11727945_x_at) / Fold change /veh ARHGAP8 /// PRR5-ARHGAP8 (11727945_x_at) / RFU KRTAP5-7 /// NADSYN1 (11734609_at) / Fold change /veh KRTAP5-7 /// NADSYN1 (11734609_at) / RFU RASL12 (11751679_a_at) / Fold change /veh RASL12 (11751679_a_at) / RFU CDKN2B (11736163_a_at) / Fold change /veh CDKN2B (11736163_a_at) / RFU PRF1 (11729649_at) / Fold change /veh PRF1 (11729649_at) / RFU, ZNF638 /// ZNF638-IT1 / Fold change vs veh, ZNF638 /// ZNF638-IT1 / RFU, PANK3 / Fold change vs veh, PANK3 / RFU, SH3YL1 / Fold change vs veh, SH3YL1 / RFU, ZEB2 / Fold change vs veh, ZEB2 / RFU, NRIP1 / Fold change vs veh, NRIP1 / RFU, PTTG1IP / Fold change vs veh, PTTG1IP / RFU, CAPN2 / Fold change vs veh, CAPN2 / RFU, MED14 / Fold change vs veh, MED14 / RFU, SNORA58 / Fold change vs veh, SNORA58 / RFU, C1orf63 / Fold change vs veh, C1orf63 / RFU, LRRFIP1 / Fold change vs veh, LRRFIP1 / RFU, NDUFAF7 / Fold change vs veh, NDUFAF7 / RFU, SLC12A2 / Fold change vs veh, SLC12A2 / RFU, IBTK / Fold change vs veh, IBTK / RFU, ESF1 / Fold change vs veh, ESF1 / Fold change vs veh, TMEM50B / RFU, TAOK1 / Fold change vs veh, TAOK1 / RFU, ACBD3 / Fold change vs veh, ACBD3 / RFU, TMA16 / Fold change vs veh, TMA16 / RFU, RWDD3 / Fold change vs veh, RWDD3 / RFU, BCAT1 / Fold change vs veh, BCAT1 / RFU, EDEM3 / Fold change vs veh, EDEM3 / RFU, TMEM33 / Fold change vs veh, TMEM33 / RFU, WDR75 / Fold change vs veh, WDR75 / RFU, AHCTF1 / Fold change vs veh, AHCTF1 / RFU, TFRC / Fold change vs veh, TFRC / RFU, ZDHHC17 / Fold change vs veh, ZDHHC17 / RFU, NOM1 / Fold change vs veh, NOM1 / RFU, ARL8B / Fold change vs veh, ARL8B / RFU, ZBTB11 / Fold change vs veh, ZBTB11 / RFU, TAMM41 / Fold change vs veh, TAMM41 / RFU, KIAA1704 /// LOC100996395 / Fold change vs veh, KIAA1704 /// LOC100996395 / RFU, ING1 / Fold change vs veh, ING1 / RFU, TRMT61B / Fold change vs veh, TRMT61B / RFU, FUBP3 / Fold change vs veh, FUBP3 / RFU, TP53 / Fold change vs veh, TP53 / RFU, TNKS2 / Fold change vs veh, TNKS2 / RFU, ZFP14 / Fold change vs veh, ZFP14 / RFU, ACTR2 / Fold change vs veh, ACTR2 / RFU, PPP3R1 / Fold change vs veh, PPP3R1 / RFU, PIK3R1 / Fold change vs veh, PIK3R1 / RFU, HNRNPA1 / Fold change vs veh, HNRNPA1 / RFU, RNF170 / Fold change vs veh, RNF170 / RFU, ZNF28 / Fold change vs veh, ZNF28 / RFU, RNGTT / Fold change vs veh, RNGTT / RFU, OGT / Fold change vs veh, OGT / RFU, BRD1 / Fold change vs veh, BRD1 / RFU, MARS / Fold change vs veh, MARS / RFU, ZNF655 / Fold change vs veh, ZNF655 / RFU, FAHD1 / Fold change vs veh, FAHD1 / RFU, BDP1 / Fold change vs veh, BDP1 / RFU, LRRCC1 / Fold change vs veh, LRRCC1 / RFU, ARID1A / Fold change vs veh, ARID1A / RFU, ZNF146 / Fold change vs veh, ZNF146 / RFU, ZNF330 / Fold change vs veh, ZNF330 / RFU, GPN3 / Fold change vs veh, GPN3 / RFU, C9orf123 / Fold change vs veh, C9orf123 / RFU, N4BP2L2 / Fold change vs veh, N4BP2L2 / RFU, ARFIP1 / Fold change vs veh, ARFIP1 / RFU, FAM179B / Fold change vs veh, FAM179B / RFU, BCL10 / Fold change vs veh, BCL10 / RFU, UHRF1BP1L / Fold change vs veh, UHRF1BP1L / RFU, BET1 / Fold change vs veh, BET1 / RFU, CNOT2 / Fold change vs veh, CNOT2 / RFU, ZNF268 / Fold change vs veh, ZNF268 / Fold change vs veh, ZNF507 / RFU, DGCR2 / Fold change vs veh, DGCR2 / RFU, WDSUB1 / Fold change vs veh, WDSUB1 / Fold change vs veh, HSP90B1 /// MIR3652 / RFU, ADSS / Fold change vs veh, ADSS / RFU, GK / Fold change vs veh, GK / RFU, ZNF148 / Fold change vs veh, ZNF148 / RFU, TAF9 / Fold change vs veh, TAF9 / RFU, SLC1A5 / Fold change vs veh, SLC1A5 / RFU, SLMO2 / Fold change vs veh, SLMO2 / RFU, ABCC4 / Fold change vs veh, ABCC4 / RFU, LOC101060439 /// RAP1B / Fold change vs veh, LOC101060439 /// RAP1B / RFU, RFX7 / Fold change vs veh, RFX7 / RFU, GTPBP10 / Fold change vs veh, GTPBP10 / RFU, CNEP1R1 / Fold change vs veh, CNEP1R1 / RFU, BIVM-ERCC5 /// ERCC5 / Fold change vs veh, BIVM-ERCC5 /// ERCC5 / RFU, ILF3 / Fold change vs veh, ILF3 / RFU 11762660_at / Fold change /veh 11762660_at / RFU VCAN (11757783_s_at) / Fold change /veh VCAN (11757783_s_at) / RFU DDX43 (11728927_at) / Fold change /veh DDX43 (11728927_at) / RFU KRT8 (11758188_x_at) / Fold change /veh KRT8 (11758188_x_at) / RFU NKD1 (11759106_at) / Fold change /veh NKD1 (11759106_at) / RFU SRD5A1 (11742802_a_at) / Fold change /veh SRD5A1 (11742802_a_at) / RFU TPSAB1 /// TPSB2 (11721975_s_at) / Fold change /veh TPSAB1 /// TPSB2 (11721975_s_at) / RFU GSTM3 (11746129_a_at) / Fold change /veh GSTM3 (11746129_a_at) / RFU IL23R (11737362_x_at) / Fold change /veh IL23R (11737362_x_at) / RFU TMEM51 (11727254_a_at) / Fold change /veh TMEM51 (11727254_a_at) / RFU PIWIL2 (11732686_x_at) / Fold change /veh PIWIL2 (11732686_x_at) / RFU ORM1 (11744905_x_at) / Fold change /veh ORM1 (11744905_x_at) / RFU CCDC152 (11743942_at) / Fold change /veh CCDC152 (11743942_at) / RFU ECM1 (11717891_a_at) / Fold change /veh ECM1 (11717891_a_at) / RFU IL23R (11748794_a_at) / Fold change /veh IL23R (11748794_a_at) / RFU TNFAIP8L3 (11732012_x_at) / Fold change /veh TNFAIP8L3 (11732012_x_at) / RFU MBOAT4 (11741988_at) / Fold change /veh MBOAT4 (11741988_at) / RFU 11764193_at / Fold change /veh 11764193_at / RFU TMEM53 (11763286_at) / Fold change /veh TMEM53 (11763286_at) / RFU MAGEB2 (11727129_at) / Fold change /veh MAGEB2 (11727129_at) / RFU TMEM200A (11744735_a_at) / Fold change /veh TMEM200A (11744735_a_at) / RFU CCDC152 (11751479_a_at) / Fold change /veh CCDC152 (11751479_a_at) / RFU FAM211A (11726209_a_at) / Fold change /veh FAM211A (11726209_a_at) / RFU RGS16 (11746705_a_at) / Fold change /veh RGS16 (11746705_a_at) / RFU VCAN (11755009_s_at) / Fold change /veh VCAN (11755009_s_at) / RFU RHOB (11743442_s_at) / Fold change /veh RHOB (11743442_s_at) / RFU RGS16 (11720943_a_at) / Fold change /veh RGS16 (11720943_a_at) / RFU RGS16 (11720944_at) / Fold change /veh RGS16 (11720944_at) / RFU, VPS4B / Fold change vs veh, VPS4B / RFU, CREB1 / Fold change vs veh, CREB1 / RFU, DNAJC13 / Fold change vs veh, DNAJC13 / RFU, GNAQ / Fold change vs veh, GNAQ / RFU, CDK5R1 / Fold change vs veh, CDK5R1 / RFU, ZRANB3 / Fold change vs veh, ZRANB3 / RFU, CUL4A / Fold change vs veh, CUL4A / RFU, CCNY / Fold change vs veh, CCNY / RFU, UFL1 / Fold change vs veh, UFL1 / RFU, COG3 / Fold change vs veh, COG3 / RFU, DIAPH2 / Fold change vs veh, DIAPH2 / RFU, SKA2 / Fold change vs veh, SKA2 / RFU, AFF3 / Fold change vs veh, AFF3 / RFU, LMF1 / Fold change vs veh, LMF1 / RFU, IPO11 / Fold change vs veh, IPO11 / RFU, DFFB / Fold change vs veh, DFFB / RFU, FOXP1 / Fold change vs veh, FOXP1 / RFU, CARD8 / Fold change vs veh, CARD8 / RFU, STRN3 / Fold change vs veh, STRN3 / RFU, ADK / Fold change vs veh, ADK / RFU, RASSF2 / Fold change vs veh, RASSF2 / RFU, WIPF1 / Fold change vs veh, WIPF1 / RFU, LARP1B / Fold change vs veh, LARP1B / RFU, RASA1 / Fold change vs veh, RASA1 / RFU, RB1 / Fold change vs veh, RB1 / RFU, PPFIA1 / Fold change vs veh, PPFIA1 / RFU, MAT2A / Fold change vs veh, MAT2A / RFU, CCT5 / Fold change vs veh, CCT5 / RFU, WDR92 / Fold change vs veh, WDR92 / RFU, CUX1 / Fold change vs veh, CUX1 / RFU, TTC7A / Fold change vs veh, TTC7A / RFU, TMEM135 / Fold change vs veh, TMEM135 / RFU, DEPTOR / Fold change vs veh, DEPTOR / RFU, CPM / Fold change vs veh, CPM / RFU, DNAJB6 / Fold change vs veh, DNAJB6 / RFU, CACNA2D3 / Fold change vs veh, CACNA2D3 / RFU, DTX4 / Fold change vs veh, DTX4 / RFU, TFCP2 / Fold change vs veh, TFCP2 / RFU, GMCL1 /// GMCL1P1 / Fold change vs veh, GMCL1 /// GMCL1P1 / RFU, AEBP2 / Fold change vs veh, AEBP2 / RFU, SNHG1 /// SNORD22 /// SNORD25 /// SNORD26 /// SNORD27 /// SNORD28 /// SNORD29 /// SNORD31 / Fold change vs veh, SNHG1 /// SNORD22 /// SNORD25 /// SNORD26 /// SNORD27 /// SNORD28 /// SNORD29 /// SNORD31 / Fold change (Aza/veh), C12orf56 (ProbeSet 11735607_a_at) / Fold change (ACY-1035/veh), C12orf56 (ProbeSet 11735607_a_at) / Fold change (Aza/veh), FGFR1OP (ProbeSet 11751329_s_at) / Fold change (ACY-1035/veh), FGFR1OP (ProbeSet 11751329_s_at) / Fold change (Aza/veh), VPS36 (ProbeSet 11739960_a_at) / Fold change (ACY-1035/veh), VPS36 (ProbeSet 11739960_a_at) / RFU SYPL1 (11715823_x_at) / Fold change /veh SYPL1 (11715823_x_at) / RFU IGFBP7 (11715501_s_at) / Fold change /veh IGFBP7 (11715501_s_at) / RFU REEP3 (11722064_at) / Fold change /veh REEP3 (11722064_at) / RFU IGLL1 (11728026_x_at) / Fold change /veh IGLL1 (11728026_x_at): dose or concentration left out as unconfirmed
Conditions: ProbeSet 11721969_s_at; LIST B

Compound: Nc1ccc(-c2cccs2)cc1NC(=O)c1ccc2c(c1)cc(C1CC1)n2CCN1CCOCC1 [ACY-1035]
- RFU, BDP1: 485.00 RFU
